{"source": "patent US10124030B2", "about": "“Skincare preparations” (KARYNG, LLC, priority 2016, dated 2018)", "origin": "cited, not measured here", "test_system": "epidermal SIRT1 protein expression", "settings": "0.02% vs untreated with UVB; UVB 0.2 J/cm^2", "data": [{"smiles": "Oc1ccc(C=Cc2cc(O)cc(O)c2)cc1", "note": "[Resveratrol]", "values": [{"measurement": "modulation of epidermal SIRT1 protein expression", "result": "−22", "unit": "%"}]}]}
